# Where “and” joins values, the source holds several entries; their conditions need not be identical. Identical values can stand only once.
# Target: T1, human TAS2R4 (Homo sapiens, UniProt Q9NYW5)
# T1 construct: expressed in transfected cells; host or cells: HEK293T-Gα16gust44
# T1 sequence (Q9NYW5 1-299): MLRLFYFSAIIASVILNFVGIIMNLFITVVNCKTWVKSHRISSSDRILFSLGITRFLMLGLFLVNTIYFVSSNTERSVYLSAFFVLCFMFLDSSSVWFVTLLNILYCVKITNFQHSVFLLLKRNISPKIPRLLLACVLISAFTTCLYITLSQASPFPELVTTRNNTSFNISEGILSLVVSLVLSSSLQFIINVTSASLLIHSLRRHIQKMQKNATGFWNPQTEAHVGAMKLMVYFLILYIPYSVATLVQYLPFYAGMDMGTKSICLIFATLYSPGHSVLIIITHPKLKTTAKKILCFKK
# Assay: Calcium imaging assay (FLIPR), HEK293T-Gα16gust44 cells transfected with human TAS2R4
# Type: cell-based
# Summary of the method: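 Bile acids from DMSO stocks are applied to dye-loaded cells one day after transient receptor transfection, and calcium-dependent fluorescence is recorded. Maximum signal is standardized to basal and normalized to buffer-only wells, with empty-vector signal subtracted.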
compound,measurement,setting,value
"C[C@H](CCC(=O)O)[C@H]1CC[C@H]2[C@@H]3[C@@H](O)C[C@@H]4C[C@H](O)CC[C@]4(C)[C@H]3CC[C@]12C [Ursodeoxycholic Acid, ursodeoxycholic acid]",Efficacy = maximal amplitude (ΔF/F),"TAS2R4, bile acids, mean",0.07236
same,"Efficacy (maximal amplitude ΔF/F), individual data points","TAS2R4, bile acids, single replicates, listed as UDCA",0.07954 and 0.05089 and 0.08665
same,Δ F/F,"TAS2R4, conc. 0,01 mM",0.05163
same,Δ F/F,"TAS2R4, conc. 0,03 mM",0.07236
same,Δ F/F,"TAS2R4, conc. 0,00003 mM",0.00102
same,Δ F/F,"TAS2R4, conc. 0,0001 mM",0.006537
same,Δ F/F,"TAS2R4, conc. 0,0003 mM",-0.0004307
same,Δ F/F,"TAS2R4, conc. 0,001 mM",0.008217
same,Δ F/F,"TAS2R4, conc. 0,003 mM",0.01726
same,"RLU, fluorescence trace",Time (s) 0,0 RLU
same,"RLU, fluorescence trace",Time (s) 2,-16.0588 RLU
same,"RLU, fluorescence trace",Time (s) 4,1.8572 RLU
same,"RLU, fluorescence trace",Time (s) 6,-24.0432 RLU
same,"RLU, fluorescence trace",Time (s) 8,-15.0627 RLU
same,"RLU, fluorescence trace",Time (s) 12,-11.1029 RLU
same,"RLU, fluorescence trace",Time (s) 14,-16.031 RLU
same,"RLU, fluorescence trace",Time (s) 16,-22.0279 RLU
same,"RLU, fluorescence trace",Time (s) 18,-16.0557 RLU
same,"RLU, fluorescence trace","Time (s) 18.766 (TCA, TLCA: 18.782)",-31 RLU
same,"RLU, fluorescence trace","Time (s) 20.781 (TCA, TLCA: 20.782)",-77.5296 RLU
same,"RLU, fluorescence trace","Time (s) 22.781 (TCA, TLCA: 22.782)",-20.8274 RLU
same,"RLU, fluorescence trace","Time (s) 24.781 (TCA, TLCA: 24.782)",13.5346 RLU
same,"RLU, fluorescence trace","Time (s) 26.781 (TCA, TLCA: 26.782)",47.9642 RLU
same,"RLU, fluorescence trace","Time (s) 28.781 (TCA, TLCA: 28.782)",73.9776 RLU
same,"RLU, fluorescence trace","Time (s) 30.781 (TCA, TLCA: 30.782)",141.824 RLU
same,"RLU, fluorescence trace","Time (s) 32.781 (TCA, TLCA: 32.782)",170.961 RLU
same,"RLU, fluorescence trace","Time (s) 34.781 (TCA, TLCA: 34.782)",211.304 RLU
same,"RLU, fluorescence trace","Time (s) 36.781 (TCA, TLCA: 36.782)",286.431 RLU
same,"RLU, fluorescence trace","Time (s) 38.781 (TCA, TLCA: 38.782)",316.3 RLU
same,"RLU, fluorescence trace","Time (s) 40.781 (TCA, TLCA: 40.782)",327.594 RLU
same,"RLU, fluorescence trace","Time (s) 42.781 (TCA, TLCA: 42.782)",352.031 RLU
same,"RLU, fluorescence trace","Time (s) 44.781 (TCA, TLCA: 44.782)",380.127 RLU
same,"RLU, fluorescence trace","Time (s) 46.781 (TCA, TLCA: 46.782)",405.893 RLU
same,"RLU, fluorescence trace","Time (s) 48.781 (TCA, TLCA: 48.782)",396.948 RLU
same,"RLU, fluorescence trace","Time (s) 50.781 (TCA, TLCA: 50.782)",411.019 RLU
same,"RLU, fluorescence trace","Time (s) 52.781 (TCA, TLCA: 52.782)",398.089 RLU
same,"RLU, fluorescence trace","Time (s) 54.781 (TCA, TLCA: 54.782)",413.206 RLU
same,"RLU, fluorescence trace","Time (s) 56.781 (TCA, TLCA: 56.782)",434.735 RLU
same,"RLU, fluorescence trace","Time (s) 58.781 (TCA, TLCA: 58.782)",418.956 RLU
same,"RLU, fluorescence trace","Time (s) 60.781 (TCA, TLCA: 60.782)",389 RLU
same,"RLU, fluorescence trace","Time (s) 62.781 (TCA, TLCA: 62.782)",407.272 RLU
same,"RLU, fluorescence trace","Time (s) 64.781 (TCA, TLCA: 64.782)",410.187 RLU
same,"RLU, fluorescence trace","Time (s) 66.781 (TCA, TLCA: 66.782)",395 RLU
same,"RLU, fluorescence trace","Time (s) 68.781 (TCA, TLCA: 68.782)",396.708 RLU
same,"RLU, fluorescence trace","Time (s) 70.781 (TCA, TLCA: 70.782)",394.232 RLU
same,"RLU, fluorescence trace","Time (s) 72.781 (TCA, TLCA: 72.782)",389.174 RLU
same,"RLU, fluorescence trace","Time (s) 74.781 (TCA, TLCA: 74.782)",367.247 RLU
same,"RLU, fluorescence trace","Time (s) 76.781 (TCA, TLCA: 76.782)",368.083 RLU
same,"RLU, fluorescence trace","Time (s) 78.781 (TCA, TLCA: 78.782)",368.91 RLU
same,"RLU, fluorescence trace","Time (s) 80.781 (TCA, TLCA: 80.782)",354 RLU
same,"RLU, fluorescence trace","Time (s) 82.781 (TCA, TLCA: 82.782)",345.234 RLU
same,"RLU, fluorescence trace","Time (s) 84.781 (TCA, TLCA: 84.782)",349.472 RLU
same,"RLU, fluorescence trace","Time (s) 86.781 (TCA, TLCA: 86.782)",337.61 RLU
same,"RLU, fluorescence trace","Time (s) 88.781 (TCA, TLCA: 88.782)",322.366 RLU
same,"RLU, fluorescence trace","Time (s) 90.781 (TCA, TLCA: 90.782)",310.929 RLU
same,"RLU, fluorescence trace","Time (s) 92.781 (TCA, TLCA: 92.782)",320.728 RLU
same,"RLU, fluorescence trace","Time (s) 94.781 (TCA, TLCA: 94.782)",299.044 RLU
same,"RLU, fluorescence trace","Time (s) 96.781 (TCA, TLCA: 96.782)",305.557 RLU
same,"RLU, fluorescence trace","Time (s) 98.781 (TCA, TLCA: 98.782)",298.819 RLU
same,"RLU, fluorescence trace","Time (s) 100.781 (TCA, TLCA: 100.782)",293.739 RLU
same,"RLU, fluorescence trace","Time (s) 102.781 (TCA, TLCA: 102.782)",282.259 RLU
same,"RLU, fluorescence trace","Time (s) 104.781 (TCA, TLCA: 104.782)",266.754 RLU
same,"RLU, fluorescence trace","Time (s) 106.781 (TCA, TLCA: 106.782)",276.382 RLU
same,"RLU, fluorescence trace","Time (s) 108.781 (TCA, TLCA: 108.782)",259.159 RLU
same,"RLU, fluorescence trace","Time (s) 110.781 (TCA, TLCA: 110.782)",276.445 RLU
same,"RLU, fluorescence trace","Time (s) 112.781 (TCA, TLCA: 112.782)",267.37 RLU
same,"RLU, fluorescence trace","Time (s) 114.781 (TCA, TLCA: 114.782)",253.353 RLU
same,"RLU, fluorescence trace","Time (s) 116.781 (TCA, TLCA: 116.782)",251.234 RLU
same,"RLU, fluorescence trace","Time (s) 118.781 (TCA, TLCA: 118.782)",253.766 RLU
same,"RLU, fluorescence trace","Time (s) 120.781 (TCA, TLCA: 120.782)",230.621 RLU
same,"RLU, fluorescence trace","Time (s) 122.781 (TCA, TLCA: 122.782)",238.721 RLU
same,"RLU, fluorescence trace","Time (s) 124.781 (TCA, TLCA: 124.782)",218.638 RLU
same,"RLU, fluorescence trace","Time (s) 126.781 (TCA, TLCA: 126.782)",215.286 RLU
same,"RLU, fluorescence trace","Time (s) 128.781 (TCA, TLCA: 128.782)",226.16 RLU
same,"RLU, fluorescence trace","Time (s) 130.781 (TCA, TLCA: 130.782)",229.593 RLU
same,"RLU, fluorescence trace","Time (s) 132.781 (TCA, TLCA: 132.782)",216.307 RLU
same,"RLU, fluorescence trace","Time (s) 134.781 (TCA, TLCA: 134.782)",209.298 RLU
same,"RLU, fluorescence trace","Time (s) 136.781 (TCA, TLCA: 136.782)",214.712 RLU
same,"RLU, fluorescence trace",Time (s) 137.547,211.548 RLU
same,"RLU, fluorescence trace",Time (s) 143.547,195.123 RLU
same,"RLU, fluorescence trace",Time (s) 149.547,191.876 RLU
same,"RLU, fluorescence trace",Time (s) 155.547,182.53 RLU
same,"RLU, fluorescence trace",Time (s) 161.547,172.093 RLU
same,"RLU, fluorescence trace",Time (s) 167.547,173.823 RLU
same,"RLU, fluorescence trace",Time (s) 173.547,178.999 RLU
same,"RLU, fluorescence trace",Time (s) 179.547,149.456 RLU
same,"RLU, fluorescence trace",Time (s) 185.547,128.186 RLU
same,"RLU, fluorescence trace",Time (s) 191.547,150.92 RLU
same,"RLU, fluorescence trace",Time (s) 197.547,155.041 RLU
same,"RLU, fluorescence trace",Time (s) 203.547,152.046 RLU
same,"RLU, fluorescence trace",Time (s) 209.547,155.822 RLU
same,"RLU, fluorescence trace",Time (s) 215.547,146.722 RLU
same,"RLU, fluorescence trace",Time (s) 221.547,144.396 RLU
same,"RLU, fluorescence trace",Time (s) 227.547,187.605 RLU
same,"RLU, fluorescence trace",Time (s) 233.547,160.672 RLU
same,"RLU, fluorescence trace",Time (s) 239.547,166.203 RLU
same,"RLU, fluorescence trace",Time (s) 245.547,147.048 RLU
same,"RLU, fluorescence trace",Time (s) 293.547,162.322 RLU
same,"RLU, fluorescence trace",Time (s) 299.547,130.446 RLU
same,"RLU, fluorescence trace",Time (s) 305.547,132.691 RLU
same,"RLU, fluorescence trace",Time (s) 311.547,138.907 RLU
same,"RLU, fluorescence trace",Time (s) 317.547,111.452 RLU
same,"RLU, fluorescence trace",Time (s) 323.547,135.942 RLU
same,"RLU, fluorescence trace",Time (s) 329.547,131.935 RLU
same,"RLU, fluorescence trace",Time (s) 335.547,149.888 RLU
same,"RLU, fluorescence trace",Time (s) 341.547,132.356 RLU
same,"RLU, fluorescence trace",Time (s) 347.547,117.981 RLU
same,"RLU, fluorescence trace",Time (s) 353.547,135.981 RLU
same,"RLU, fluorescence trace",Time (s) 359.547,144.823 RLU
same,Activation threshold concentration TAS2R4,lowest concentration with significantly increased fluorescence vs empty vector (p < 0.01),3 µM

# Reference: PMC10247784, “Physiological activation of human and mouse bitter taste receptors by bile acids” (Communications Biology, 2023)
